Patent publication US20240318141A1, “MATURATION AGENT” (Orizuru Therapeutics, Inc., priority 2021, published 2024)
“And” between values parts separate entries of the source, which are not always exact repeats. Equal entries are not always repeated.

Legend:
[1] = test system: insulin-producing cell population (QHJI-114s04 iPS cell line); assay: Marker protein expression by flow cytometry of insulin-producing cell population prepared by addition of docetaxel (Example 3); assay type: cell-based, human
From the text: The differentiation of a QHJI-114s04 iPS cell line into insulin-producing cells was induced by the three-dimensional culture method using a bioreactor and a multiwell plate according to steps 1) to 6) described above and the previous report (Nature Biotechnology 2014; 32: 1121-1133). Specifically, the iPS cells were subjected to the first culture in a medium (DMEM/1% B-27 (INS+)/Penicillin Streptomycin/dimethyl sulfoxide) containing differentiation-inducing factors (GSK3β inhibitor, ROCK inhibitor and low dose of activin A) under conditions causing action of insulin, and subsequently subjected to the second culture in a medium (DMEM/1% B-27 (INS−)/Penicillin Streptomycin/dimethyl sulfoxide) containing a differentiation-inducing factor (low dose of activin A) under conditions causing no action of insulin to obtain definitive endoderm cells. Further, a pancreatic endocrine progenitor cell population obtained by the induction of differentiation from the definitive endoderm cells was cultured in a medium (MCDB131/20 mM Glucose/NaHCO3/FAF-BSA/ITS-X/Glutamax/Penicillin Streptomycin) containing differentiation-inducing factors (ALK5 inhibitor II, T3, LDN, γ-secretase inhibitor RO, […]) to obtain an insulin-producing cell population. The exchange from the bioreactor to the multiwell plate was carried out in step 6).
Marker protein expression (NKX6.1, C-peptide (insulin), CHGA, and Ki67) in each insulin-producing cell population after the completion of culture was measured by flow cytometry. Respective samples were collected by sampling from separate culture containers. The number of cells was measured in an automatic cell counter at the time of sample preparation for flow cytometry, and the total number of cells per well of the multiwell plate was calculated.

[2] = test system: non-endocrine cells in insulin-producing cell population (QHJI-114s04 iPS cell line); assay: Docetaxel treatment of cell population comprising insulin-producing cells, then extended culture in basal medium containing EGF (Example 4); assay type: cell-based, human; details: for proportions of PDX1+/CHGA− and PDX1−/CHGA− cells after extended culture involving EGF: with respect to control cell population
From the text: The differentiation of a QHJI-114s04 iPS cell line into an insulin-producing cell population was induced by the three-dimensional culture method using a bioreactor according to steps 1) to 6) described above and the previous report (Nature Biotechnology 2014; 32: 1121-1133). Specifically, the iPS cells were subjected to the first culture in a medium (DMEM/1% B-27 (INS+)/Penicillin Streptomycin/dimethyl sulfoxide) containing differentiation-inducing factors (GSK3β inhibitor, ROCK inhibitor and low dose of activin A) under conditions causing action of insulin, and subsequently subjected to the second culture in a medium (DMEM/1% B-27 (INS−)/Penicillin Streptomycin/dimethyl sulfoxide) containing a differentiation-inducing factor (low dose of activin A) under conditions causing no action of insulin to obtain a definitive endoderm cell population. […] The exchange from the bioreactor to the multiwell plate was carried out in step 6).
Marker protein expression (PDX1 and CHGA) in each cell population before the start of and after the completion of extended culture was measured by flow cytometry. Marker protein expression (NKX6.1, C-peptide (insulin), PDX1, and CHGA) in the cell population obtained 7 days after the start of step 6) was also measured by flow cytometry. Respective samples were collected by sampling from separate culture containers. The number of cells was measured in an automatic cell counter at the time of sample preparation for flow cytometry, and the total number of cells per well of the multiwell plate was calculated.

[3] = test system: immunodeficient NOD/SCID mouse with streptozotocin-induced insulin-deficient diabetes mellitus; assay: In vivo transplantation of insulin-producing cell population prepared by addition of docetaxel: plasma human C-peptide and graft weight (Example 5)
Description: An immunodeficient NOD/SCID mouse was prepared by inducing insulin-deficient diabetes mellitus with streptozotocin. […] After transplantation, a human C-peptide concentration in plasma was measured over time. The graft was excised 6 months after transplantation, and its weight was measured.

[4] = test system: non-endocrine cells in graft (Outgrowth, Cyst); assay: Evaluation of non-endocrine cells in graft and protein expression by HE and immunohistological staining (Example 5); assay type: in vivo, mouse; details: graft 6 months after transplantation
Description: The excised graft was fixed and dehydrated, and a paraffin section was then prepared and subjected to HE staining and immunohistological staining for the expression of the proteins of interest (insulin, glucagon, Ki67, human nucleus, PDX1, and CK19). The presence or absence of non-endocrine cells was confirmed on the basis of the morphology and staining image thereof. The number and frequency of non-endocrine cells appearing in the graft were counted as total numbers from four tests conducted with cells derived from a plurality of batches treated in the same manner.
Outgrowth shown in Table 9 refers to a population of human nucleus-positive, PDX1-negative, and Ki67-positive non-endocrine cells, and its presence was determined from morphology by HE staining as well as by immunohistological staining. Cyst shown in Table 9 refers to human nucleus-positive, PDX1-positive, and CK19-positive non-endocrine duct cells, and its presence was determined from a duct form by HE staining as well as by immunohistological staining.

[5] = +Docetaxel 4 days from day 7 (1 μM), s6d11
[6] = +Docetaxel 4 days from day 7, after extended culture, EGF absent
[7] = +Docetaxel 4 days from day 7, after extended culture, EGF present
[8] = +Docetaxel 7 days from day 4 (1 μM), s6d11
[9] = +Docetaxel 7 days from day 4, after extended culture, EGF absent
[10] = +Docetaxel 7 days from day 4, after extended culture, EGF present

CC(=O)O[C@@]12CO[C@@H]1C[C@H](O)[C@@]1(C)C(=O)[C@H](O)C3=C(C)[C@@H](OC(=O)[C@H](O)[C@@H](NC(=O)OC(C)(C)C)c4ccccc4)C[C@@](O)([C@@H](OC(=O)c4ccccc4)[C@H]21)C3(C)C [Docetaxel, (−)-(1S,2S,3R,4S,5R,7S,8S,10R,13S)-4-Acetoxy-2-benzoyloxy-5,20-epoxy-1,7,10-trihydroxy-9-oxotax-11-en-13-yl (2R,3S)-3-tert-butoxycarbonylamido-2-hydroxy-3-phenylpropionate]
increase of proportion of INS-positive and NKX6.1-positive cells ([1]; 1 μM docetaxel, 7 days from day 4 of step 6), with respect to control cell population): about 10% | Total number of cells ([1]; docetaxel treatment 1, 3 or 10 μM): not changed | abundance of CHGA-negative and Ki67-positive (CHGA−/Ki67+) cells ([1]; medium with PD-166866, irrespective of presence or absence of docetaxel treatment, without extended culture): ≤ 0.1% | action on proportion of INS-positive and NKX6.1-positive cells at higher concentration ([1]; up to the docetaxel concentration of 10 μM): not changed | population exhibiting marked increase by extended culture involving EGF (table footnote) ([2]; +Docetaxel 4 days from day 7): No population exhibited marked increase by extended culture involving EGF | The number of cells CHGA+ [2, 5]: 177 ×10^4 cells/well | The number of cells PDX+/CHGA− [2, 5]: 0.7 ×10^4 cells/well | The number of cells PDX−/CHGA− [2, 5]: 0.9 ×10^4 cells/well | Total number of cells [2, 5]: 178 ×10^4 cells/well | The number of cells CHGA+ [2, 6]: 132 ×10^4 cells/well | The number of cells PDX+/CHGA− [2, 6]: 1.5 ×10^4 cells/well | The number of cells PDX−/CHGA− [2, 6]: 6.3 ×10^4 cells/well | Total number of cells [2, 6]: 140 ×10^4 cells/well | The number of cells CHGA+ [2, 7]: 144 ×10^4 cells/well and 133 ×10^4 cells/well and 147 ×10^4 cells/well | The number of cells PDX+/CHGA− [2, 7]: 1.1 ×10^4 cells/well and 1.3 ×10^4 cells/well and 1.2 ×10^4 cells/well | The number of cells PDX−/CHGA− [2, 7]: 5.6 ×10^4 cells/well and 6.6 ×10^4 cells/well and 5.9 ×10^4 cells/well | Total number of cells [2, 7]: 151 ×10^4 cells/well and 141 ×10^4 cells/well and 154 ×10^4 cells/well | proportions of PDX1+/CHGA− and PDX1−/CHGA− cells after extended culture involving EGF ([2]; +Docetaxel 4 days from day 7): drastically decreased | population exhibiting marked increase by extended culture involving EGF (table footnote) ([2]; +Docetaxel 7 days from day 4): No population exhibited marked increase by extended culture involving EGF | The number of cells CHGA+ [2, 8]: 209 ×10^4 cells/well | The number of cells PDX+/CHGA− [2, 8]: 0.4 ×10^4 cells/well | The number of cells PDX−/CHGA− [2, 8]: 0.8 ×10^4 cells/well | Total number of cells [2, 8]: 210 ×10^4 cells/well | The number of cells CHGA+ [2, 9]: 126 ×10^4 cells/well | The number of cells PDX+/CHGA− [2, 9]: 1.5 ×10^4 cells/well | The number of cells PDX−/CHGA− [2, 9]: 5.0 ×10^4 cells/well | Total number of cells [2, 9]: 132 ×10^4 cells/well | The number of cells CHGA+ [2, 10]: 132 ×10^4 cells/well and 127 ×10^4 cells/well and 159 ×10^4 cells/well | The number of cells PDX+/CHGA− [2, 10]: 0.8 ×10^4 cells/well and 1.5 ×10^4 cells/well | The number of cells PDX−/CHGA− [2, 10]: 4.7 ×10^4 cells/well and 2.9 ×10^4 cells/well and 4.8 ×10^4 cells/well | Total number of cells [2, 10]: 138 ×10^4 cells/well and 165 ×10^4 cells/well | proportions of PDX1+/CHGA− and PDX1−/CHGA− cells after extended culture involving EGF ([2]; +Docetaxel 7 days from day 4): drastically decreased | graft weight ([3]; graft excised at 6 months after transplantation): low tendency | persistence of human C-peptide secretion after transplantation ([3]; subcutaneous transplantation, follow-up): continuously confirmed up to 6 months after transplantation | human C-peptide secretion in plasma ([3]; subcutaneously transplanted cell population prepared by addition of docetaxel vs prepared without docetaxel): at the same level | Ki67-positive cells in graft (immunohistological staining) [4]: slightly scattered | insulin-positive and glucagon-positive cells in graft (immunohistological staining) [4]: many insulin-positive and glucagon-positive cells were confirmed throughout the whole graft | Frequency of appearance (%), Cyst ([4]; total of 4 tests, 21 animals): 10% | Frequency of appearance (%), Outgrowth ([4]; total of 4 tests, 21 animals): 0% | The number of appearance, Cyst ([4]; total of 4 tests, 21 animals): 2 | The number of appearance, Outgrowth ([4]; total of 4 tests, 21 animals): 0
